Results: patent publication US20140120060A1, “TREATMENT OF RHEUMATOID ARTHRITIS AND ASTHMA USING PI3 KINASE INHIBITORS” (INFINITY PHARMACEUTICALS, INC., priority 2012, published 2014)

Columns and labels:
[1] = In vitro genetic toxicity studies
[2] = Plasma protein binding, monkey plasma; type: in vitro ADME; settings: 100 μM (41700 ng/mL)
Source text: […]. […] […].

Caco-2 cell monolayers = test: Membrane permeability in Caco-2 cell monolayers; type: in vitro ADME, human
[3] = Clinical study in healthy adult subjects: safety
[4] = tested on: developing adjuvant arthritis; test: Freund's complete adjuvant induced rat model of arthritis; type: in vivo
Source text: Freund's complete adjuvant induced arthritis in the rat is an experimental model of polyarthritis that has been widely used for nonclinical testing of numerous anti-arthritic agents that are either under nonclinical or clinical investigation, or are currently used as therapeutics in this disease.

PBMCs = test: LPS induced cytokine production in PBMCs; type: cell-based, human
Method: These experiments were conducted using PBMCs.

SMILES: C[C@H](Nc1ncnc2[nH]cnc12)c1cc2cccc(Cl)c2c(=O)n1-c1ccccc1 [Compound 292]
- genetic toxicity [1]: no genetic toxicity
- protein bound in monkey plasma [2]: 76.8%
- cell membrane permeability (Caco-2 cell monolayers): moderate
- deaths and serious adverse events (SAEs) ([3]; all doses evaluated): no deaths and no serious adverse events
- safety laboratory or electrocardiogram (ECG) abnormalities ([3]; any portion of the study): No clinically significant safety laboratory or electrocardiogram (ECG) abnormalities
- QTcF at any assessment ([3]; serial ECGs): ≤ 500 ms
- largest change from baseline in QTcF ([3]; serial ECGs): 37 ms
- tolerability ([3]; single doses up to 30 mg and up to 10 mg total daily dose for 14 days): well tolerated
- reduction of final paw weights ([4]; 5 mg/kg BID): 30%
- reduction of histopathologic bone resorption ([4]; 5 mg/kg BID): 72%
- reduction of histopathologic inflammation ([4]; 5 mg/kg BID): 18%
- inhibition of ankle diameter AUC (d7-14) increase ([4]; 5 mg/kg BID PO days 5-14): 24%
- reduction of final paw weights ([4]; 10 mg/kg QD): 23%
- reduction of histopathologic bone resorption ([4]; 10 mg/kg QD): 67%
- reduction of histopathologic inflammation ([4]; 10 mg/kg QD): 15%
- inhibition of ankle diameter AUC (d7-14) increase ([4]; 10 mg/kg QD PO days 5-14): 31%
- reduction of final paw weights ([4]; 50 mg/kg QD): 98%
- reduction of histopathologic bone resorption ([4]; 50 mg/kg QD): 100%
- reduction of histopathologic inflammation ([4]; 50 mg/kg QD): 88%
- inhibition of ankle diameter AUC (d7-14) increase ([4]; 50 mg/kg QD PO days 5-14): 95%
- LPS induced IL-1 production (PBMCs): enhanced
- LPS induced IL-6 production (PBMCs): enhanced
- LPS induced IL-8 production (PBMCs): did not detectably affect
- LPS induced TNF-α production (PBMCs): enhanced
